These results are taken from US20260297081A1, “COMPOUNDS AND METHODS OF TREATING CANCERS” (Cullgen Inc., priority 2023, published 2026).

What is called IC50 is the concentration at which inhibition is half-maximal. The term inhibition denotes the percentage by which the read-out fell short of the control. A high value points to a strong effect.

What all share (format): cell-based
Assay [1] deals with Calu-1 cells. Briefly: Anti-proliferation (viability) of NSCLC Calu-1 cells, 3 days (Table 7, FIG. 2B). The settings on record: Homo sapiens, 72 h; Calu-1 cells, 3 days, 10-point serial dilution; read-out: GI IC50 in Calu-1. In short, it runs like this: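 Cells were exposed to heterobifunctional compounds across a 10-point serial dilution, for 3 days with Calu-1 and 6 days with T47D. A negative control was included that keeps the DDB1 ligand and linker but carries a modified warhead that impairs CDK4 binding.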

In assay [2] the test system is MCF7 cells. Kind of assay: Anti-proliferation (viability) of MCF7 cells (Table 7, FIG. 2B). Particulars: Homo sapiens, MCF7, MCF7 cells, 3-6 days, 10-point serial dilution; read-out: GI IC50 in MCF-7.
Assay [3] has as its target CDK4 (Homo sapiens, UniProt P11802+Q16531). Briefly: CDK4 percentage degradation in Calu-1 cells (Table 6). More on the design: Cells that express cyclin D1-3 and CDK4/6 proteins were treated with heterobifunctional compounds; endogenous in cells; host or cells: Calu-1. Particulars: 16 hours; for inhibition at 0.04 µM: 40 nM; for inhibition at 0.2 µM: 200 nM. In short, it runs like this: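 Calu-1 cells exposed to heterobifunctional compounds at 40 nM or 200 nM for 16 h. Cyclin D1 and CDK4 levels measured by Western blot of RIPA lysates (BCA-normalised loading), bands quantified by densitometry and expressed as percentage degradation.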

Sequence of CDK4 (P11802 2-303 limits assumed): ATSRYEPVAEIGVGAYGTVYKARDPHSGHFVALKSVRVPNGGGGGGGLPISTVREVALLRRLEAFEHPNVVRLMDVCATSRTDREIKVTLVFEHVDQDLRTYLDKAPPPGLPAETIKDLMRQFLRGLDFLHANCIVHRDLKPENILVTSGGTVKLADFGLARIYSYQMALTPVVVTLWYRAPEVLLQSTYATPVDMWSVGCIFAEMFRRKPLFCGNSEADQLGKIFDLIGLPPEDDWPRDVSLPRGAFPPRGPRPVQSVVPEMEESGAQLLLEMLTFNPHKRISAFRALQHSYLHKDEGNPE
Sequence of CDK4 (P24385 whole entry partner): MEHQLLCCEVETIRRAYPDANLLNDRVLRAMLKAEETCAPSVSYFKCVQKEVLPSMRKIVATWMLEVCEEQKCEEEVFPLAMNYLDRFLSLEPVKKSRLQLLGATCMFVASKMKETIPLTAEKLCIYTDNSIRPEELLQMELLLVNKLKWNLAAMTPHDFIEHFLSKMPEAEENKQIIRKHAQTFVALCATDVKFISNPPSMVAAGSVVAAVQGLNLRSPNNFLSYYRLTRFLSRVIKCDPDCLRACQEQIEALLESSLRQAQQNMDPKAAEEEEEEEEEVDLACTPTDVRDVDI
Sequence of CDK4 (Q16531 2-1140 limits assumed): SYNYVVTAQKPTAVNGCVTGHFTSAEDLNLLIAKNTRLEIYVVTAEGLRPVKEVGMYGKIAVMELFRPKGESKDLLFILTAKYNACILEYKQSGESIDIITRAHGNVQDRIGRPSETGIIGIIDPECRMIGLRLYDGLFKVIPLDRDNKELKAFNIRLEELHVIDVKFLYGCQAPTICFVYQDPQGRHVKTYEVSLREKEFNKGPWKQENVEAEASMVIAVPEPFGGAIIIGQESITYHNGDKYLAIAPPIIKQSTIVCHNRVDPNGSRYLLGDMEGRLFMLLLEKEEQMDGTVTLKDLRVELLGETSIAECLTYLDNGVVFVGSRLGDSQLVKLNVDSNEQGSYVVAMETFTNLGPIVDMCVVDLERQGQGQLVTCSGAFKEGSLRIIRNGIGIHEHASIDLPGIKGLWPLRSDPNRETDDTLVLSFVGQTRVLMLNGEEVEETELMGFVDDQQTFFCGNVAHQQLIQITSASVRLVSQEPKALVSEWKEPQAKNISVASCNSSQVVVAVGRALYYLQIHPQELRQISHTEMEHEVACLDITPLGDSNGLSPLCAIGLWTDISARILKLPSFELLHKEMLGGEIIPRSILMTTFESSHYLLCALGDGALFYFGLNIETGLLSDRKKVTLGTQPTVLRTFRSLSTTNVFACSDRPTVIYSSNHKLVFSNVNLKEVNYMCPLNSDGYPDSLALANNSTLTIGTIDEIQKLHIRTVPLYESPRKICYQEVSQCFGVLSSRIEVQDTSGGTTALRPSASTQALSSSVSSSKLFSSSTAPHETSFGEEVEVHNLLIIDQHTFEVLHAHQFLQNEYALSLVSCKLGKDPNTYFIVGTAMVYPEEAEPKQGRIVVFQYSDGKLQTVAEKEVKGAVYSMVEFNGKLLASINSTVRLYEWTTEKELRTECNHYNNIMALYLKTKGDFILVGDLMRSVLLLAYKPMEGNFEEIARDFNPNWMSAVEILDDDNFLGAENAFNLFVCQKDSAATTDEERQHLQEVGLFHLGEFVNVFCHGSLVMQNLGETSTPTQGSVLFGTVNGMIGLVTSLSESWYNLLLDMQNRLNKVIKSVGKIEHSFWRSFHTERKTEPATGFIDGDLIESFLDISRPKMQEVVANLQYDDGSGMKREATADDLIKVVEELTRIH

Consider `CNc1ccc(C(=O)Nc2cc(C)n(C)n2)c(NC2CC(CNC(=O)CN3CCN(c4ccc(Nc5ncc6c(C)c(C(C)=O)c(=O)n(C7CCCC7)c6n5)nc4)CC3)C2)n1` (centres unmarked) [CPD-165, 2-((3-((2-(4-(6-((6-acetyl-8-cyclopentyl-5-methyl-7-oxo-7,8-dihydropyrido[2,3-d]pyrimidin-2-yl)amino)pyridin-3-yl)piperazin-1-yl)acetamido)methyl)cyclobutyl)amino)-N-(1,5-dimethyl-1H-pyrazol-3-yl)-6-(methylamino)nicotinamide], for which, in assay [1], the IC50 was at most 0.01 µM. For the same compound, the IC50 in assay [2] was over 0.1 µM. In assay [3], this compound had an inhibition at 0.04 µM of 50 to 80% and an inhibition at 0.2 µM of over 80%.
In the same order, the values of `CC(=O)c1c(C)c2cnc(Nc3ccc(N4CCN(CC(=O)NC5CC6(C5)CC(Nc5nc(NC(C)C)ccc5C(=O)Nc5cc(C)on5)C6)CC4)cn3)nc2n(C2CCCC2)c1=O` (centres unmarked) [CPD-199, 2-((6-(2-(4-(6-((6-acetyl-8-cyclopentyl-5-methyl-7-oxo-7,8-dihydropyrido[2,3-d]pyrimidin-2-yl)amino)pyridin-3-yl)piperazin-1-yl)acetamido)spiro[3.3]heptan-2-yl)amino)-6-(isopropylamino)-N-(5-methylisoxazol-3-yl)nicotinamide] are at most 0.01 µM, 0.05 to 0.1 µM, 50 to 80% and 50 to 80%.
In the same order, the values of `CNc1ccc(C(=O)Nc2cccc(C3CC3)n2)c(NC2CC3(C2)CN(C(=O)C2(CN4CCN(c5ccc(Nc6ncc7c(C)c(C(C)=O)c(=O)n(C8CCCC8)c7n6)nc5)CC4)CC2)C3)n1` [CPD-173, 2-((2-(1-((4-(6-((6-acetyl-8-cyclopentyl-5-methyl-7-oxo-7,8-dihydropyrido[2,3-d]pyrimidin-2-yl)amino)pyridin-3-yl)piperazin-1-yl)methyl)cyclopropane-1-carbonyl)-2-azaspiro[3.3]heptan-6-yl)amino)-N-(6-cyclopropylpyridin-2-yl)-6-(methylamino)nicotinamide] are at most 0.01 µM, under 0.05 µM, over 80% and over 80%.
In the same order, the values of `[2H]C([2H])([2H])Nc1ccc(C(=O)Nc2cc(C)n(C)n2)c(NC2CC(CNC(=O)CN3CCN(c4ccc(Nc5ncc6c(C)c(C(C)=O)c(=O)n(C7CCCC7)c6n5)nc4)CC3)C2)n1` (centres unmarked) [CPD-206, 2-((3-((2-(4-(6-((6-acetyl-8-cyclopentyl-5-methyl-7-oxo-7,8-dihydropyrido[2,3-d]pyrimidin-2-yl)amino)pyridin-3-yl)piperazin-1-yl)acetamido)methyl)cyclobutyl)amino)-N-(1,5-dimethyl-1H-pyrazol-3-yl)-6-((methyl-d3)amino)nicotinamide] are at most 0.01 µM, over 0.1 µM, 50 to 80% and 50 to 80%.
On to `CNc1ccc(C(=O)Nc2ccc(N(C)C)nn2)c(NC2CC(CNC(=O)C(C)(C)N3CCN(c4ccc(Nc5ncc6c(C)c(C(C)=O)c(=O)n(C7CCCC7)c6n5)nc4)CC3)C2)n1` (centres unmarked) [CPD-167, 2-((3-((2-(4-(6-((6-acetyl-8-cyclopentyl-5-methyl-7-oxo-7,8-dihydropyrido[2,3-d]pyrimidin-2-yl)amino)pyridin-3-yl)piperazin-1-yl)-2-methylpropanamido)methyl)cyclobutyl)amino)-N-(6-(dimethylamino)pyridazin-3-yl)-6-(methylamino)nicotinamide], for which the 50% inhibitory concentration (IC50) in assay [1] was at most 0.01 µM. In addition, the IC50 in assay [2] was under 0.05 µM. Further, in assay [3], the inhibition at 0.04 µM is over 80% and the inhibition at 0.2 µM was over 80%.
